From patent US20260337240A1, “CC16-DERIVED ANALOGS FOR THE TREATMENT OF INFLAMMATORY AND OBSTRUCTIVE LUNG DISEASES” (priority 2023, published 2026)
Non-standard residues stand in square brackets, D forms with d. Residues, ends and D or L forms follow the SMILES beside them. Nle = CCCC[C@H](N)C(=O)O

Experiments:
[1] = test system: human Rhinovirus in primary nasal cells; assay: Peptidomimetic screen in human nasal cells: RV infectivity (RT-PCR); type: cell-based; conditions: for RV infectivity / RV inhibition activity: RV MOI 0.1 for 4 hrs, then compound for 48 hrs, triplicate, RT-PCR (FIG. 10 top panel)
Text: (§1) Top panel, RV infectivity; middle panel, IFN-lamda; bottom panel, TNF-alpha levels. All determined by RT-PCR.
(§2) CC16-derived peptidomimetics provide protection against human Rhinovirus infection in airway epithelial cells. Preliminary studies were done in primary nasal cells grown at an ALI. Transwell cells were challenged with RV ([…] (MOI) 0.1) for 4 hrs, after which external RV was washed from the cell surface and test compounds added; uninfected baseline controls will be treated the same by pipetting media. Cells are allowed to incubate for an additional 48 hrs. Three readouts were used for analysis in this screen: RV infectivity, INF-lambda induction, and TNF-alpha induction. An optimal compound for this screening will have a reduction in RV infection, maintain high levels of INF-lambda, and have low levels of TNF-alpha.
(§3) RV burden, INF-lambda, and TNF-alpha are assessed by RT-PCR. Those compounds moving forward will be tested in a dose-response to determine optimal concentrations needed for IC50.

[2] = test system: INF-lambda; assay: Peptidomimetic screen in human nasal cells: INF-lambda induction (RT-PCR); type: cell-based; conditions: 2.5 μM; RV MOI 0.1 for 4 hrs, then compound for 48 hrs; RT-PCR (FIG. 10 middle panel)
Text: as §1, §2, §3

[3] = test system: RV in primary human nasal epithelial cells (HNECs); assay: RV infection in primary human nasal epithelial cells (HNECs) at ALI, post-infection treatment (qPCR); type: cell-based; conditions: 25 g/ml (so in the source); added after 4 hrs RV infection, 48 hrs incubation; non-asthma participants; p<0.01 by ANOVA (FIG. 6)
Procedure: Cells were grown at ALI for 3 weeks and infected with RV for 4 hours, after which they were washed and allowed to incubate for 48 hours with or without rCC16 or C836. RV was determined by qPCR. Each dot is a technical replicate, ** p<0.01 by ANOVA.
rCC16 and CC16-derived peptidomimetics reduce RV infection in human nasal cells. In order to test if rCC16 added exogenously could protect against RV viral infection, primary human nasal epithelial cells (HNECs) were grown from non-asthma participants at an air-liquid interface (ALI) for 21 days. On the day of infection, RV was added to the apical surface and allowed to incubate for 4 hrs, after which cells were gently washed with media, and either media alone, rCC16 (25 g/ml), or CC16-derived peptidomimetic, C836 (25 g/ml), were added and cells allowed to incubate for an additional 48 hrs. After harvest, RV infectivity was determined by PCR for RV.

[4] = test system: airway hyperresponsiveness (AHR); assay: Airway hyperresponsiveness (AHR) to methacholine in HDM-exposed Cc16^−/− mice (flexiVent); type: in vivo; conditions: oropharyngeal, approximately 1 hr after each HDM dose on days 0, 7, 14; methacholine 24 hrs after last HDM; p<0.05 at the highest dose (FIG. 9)
Procedure: C836 was delivered to the airways 2 hrs after each HDM challenge. AHR to methacholine was assessed 24 hrs after the last HDM challenge. * p<0.05 at the highest dose.
C836 reduces AHR in Cc16^−/− mice exposed to HDM. The activity of C836 was tested for its ability to provide protection in the allergic airway model induced by exposure to HDM. For this, CC16^−/− mice were used, and the C836 (or vehicle control) was delivered to the airway via the oropharyngeal method approximately 1 hr after each HDM dose on days 0, 7, and 14. Mice were assessed 24 hrs after the last HDM challenge by flexi Vent® and methacholine challenge.

[5] = test system: lung function in HDM-treated mice; assay: Baseline lung function (FEV0.2, invasive PFT) without methacholine provocation in HDM-treated mice; type: in vivo; conditions: IV, 24 hrs after last HDM challenge (FIG. 8 right)
Procedure: (§4) Left panel, C836, was delivered via IV 2 hrs after each HDM challenge. Cells in the lavage fluid were measured 24 hrs after the last HDM challenge. Right panel, baseline lung function, without methacholine provocation, as assessed in the mice receiving C836 IV, 24 hrs after the last HDM challenge. ** p<0.01, **** p<0.0001 by ANOVA.
Lung function tests are typically performed using methacholine provocation, which induces bronchoconstriction. However, the tests referenced here were conducted without provocation, meaning that when C836 was administered alongside an HDM challenge, it prevented the loss of lung function typically associated with HDM exposure. These tests were conducted at baseline, without the use of a bronchoconstrictor, similar to an asthma patient living a normal day without an attack.

[6] = test system: house dust mite (HDM) allergic airway disease; neutrophils in lavage fluid; assay: Neutrophil recruitment into the lung in HDM model, IV treatment; type: in vivo, mice; conditions: IV 2 hrs after each HDM challenge; lavage fluid 24 hrs after last HDM challenge; preliminary (FIG. 8 left)
Procedure: as §4
Thus, a small peptidomimetic was designed based on the newly discovered LVD (leucine-valine-aspartic acid) integrin binding domain contained within the CC16 protein. The lead compound, C836, is a 17-mer containing the LVD integrin binding domain. […] Neutrophils, when present in the lungs of individuals with asthma, are typically associated with more severe and difficult to treat forms of the condition. In COPD, neutrophils are often highly destructive, releasing factors and enzymes that degrade the basement membrane and damage the delicate airway epithelium. Therefore, strategies to reduce neutrophil accumulation or activity in both asthma and COPD would provide significant benefits for overall lung health, potentially improving disease outcomes and reducing airway damage.

[7] = test system: TNF-alpha; assay: Peptidomimetic screen in human nasal cells: TNF-alpha induction (RT-PCR); type: cell-based; conditions: 2.5 μM; RV MOI 0.1 for 4 hrs, then compound for 48 hrs; RT-PCR (FIG. 10 bottom panel)
Text: as §1, §2, §3

[8] = test system: airway hyperresponsiveness and respiratory infections; assay: rCC16 delivered intravenously (retro-orbital) or oropharyngeally: airway hyperresponsiveness and respiratory infections; type: in vivo; conditions: IV via retro-orbital injection or oropharyngeal delivery (both)
Text: (§5) In the examples provided below, human recombinant CC16 (rCC16) was delivered either intravenously (IV) via retro-orbital injection or directly to the lungs through oropharyngeal delivery.

[9] = test system: leukocyte recruitment into the lungs; assay: rCC16 delivered intravenously or oropharyngeally: leukocyte recruitment into the lungs; type: in vivo; conditions: only intravenous delivery
Text: as §5

[10] = test system: human Rhinovirus (RV; RVIB); assay: RV burden in CC16^−/− mice given rCC16 (RT-PCR); type: in vivo; conditions: female CC16^−/− mice; RV 4×10^7 PFU/50 μl intranasal; rCC16 given at time of infection; RT-PCR at 48 hrs; p<0.05 by t-test (FIG. 4)
Procedure: RT-PCR at 48 hrs. * p<0.05 by t-test.
rCC16 treatment decreases human Rhinovirus (RV; RVIB) burden in CC16^−/− mice: For these studies, female mice were infected with RV (4×10^7 plaque-forming unit (PFU)/50 μl) via intranasal instillation for 48 hrs, and mice were either given vehicle (saline) or rCC16 (human recombinant CC16) at the time of infection.

[11] = test system: respiratory challenges; conditions: direct delivery; cited from earlier work

Molecule: CCCC[C@H](NC(=O)[C@H](CC(=O)O)NC(=O)[C@H](CCC(N)=O)NC(=O)[C@H](CC(=O)O)NC(C)=O)C(=O)N[C@@H](CCCNC(=N)N)C(=O)N[C@@H](CCC(=O)O)C(=O)N[C@@H](C)C(=O)NCC(=O)N[C@@H](C)C(=O)N[C@@H](CCC(N)=O)C(=O)N[C@@H](CC(C)C)C(=O)N[C@@H](CCCCN)C(=O)N[C@@H](CCCCN)C(=O)N[C@@H](CC(C)C)C(=O)N[C@H](C(=O)N[C@@H](CC(=O)O)C(=O)O)C(C)C [Compound 970, Ac-Asp-Gln-Asp-Nle-Arg-Glu-Ala-Gly-Ala-Gln-Leu-Lys-Lys-Leu-Val-Asp-OH] (Ac-DQD[Nle]REAGAQLKKLVD-OH)
- RV infectivity / RV inhibition activity ([1]; 2.5 μM): had RV inhibition activity

Molecule: CCCC[C@H](NC(=O)[C@H](CC(=O)O)NC(=O)[C@H](CCC(N)=O)NC(=O)[C@H](CC(=O)O)NC(C)=O)C(=O)N[C@@H](CCCNC(=N)N)C(=O)N[C@@H](CCC(=O)O)C(=O)N[C@@H](C)C(=O)NCC(=O)N[C@@H](C)C(=O)N[C@@H](CCC(N)=O)C(=O)N[C@@H](CC(C)C)C(=O)N[C@@H](CCCCN)C(=O)N[C@@H](CCCCN)C(=O)N[C@@H](CC(C)C)C(=O)N[C@H](C(N)=O)C(C)C [Compound 971, Ac-Asp-Gln-Asp-Nle-Arg-Glu-Ala-Gly-Ala-Gln-Leu-Lys-Lys-Leu-Val-NH2] (Ac-DQD[Nle]REAGAQLKKLV-NH2)
- RV infectivity / RV inhibition activity ([1]; 2.5 μM): had RV inhibition activity

Molecule: CCCC[C@H](NC(=O)[C@H](CC(=O)O)NC(=O)[C@H](CCC(N)=O)NC(C)=O)C(=O)N[C@@H](CCCNC(=N)N)C(=O)N[C@@H](CCC(=O)O)C(=O)N[C@@H](C)C(=O)NCC(=O)N[C@@H](C)C(=O)N[C@@H](CCC(N)=O)C(=O)N[C@@H](CC(C)C)C(=O)N[C@@H](CCCCN)C(=O)N[C@@H](CCCCN)C(=O)N[C@@H](CC(C)C)C(=O)N[C@H](C(=O)N[C@@H](CC(=O)O)C(=O)N[C@H](C(N)=O)[C@@H](C)O)C(C)C [Compound 972, Ac-Gln-Asp-Nle-Arg-Glu-Ala-Gly-Ala-Gln-Leu-Lys-Lys-Leu-Val-Asp-Thr-NH2] (Ac-QD[Nle]REAGAQLKKLVDT-NH2)
- RV infectivity / RV inhibition activity ([1]; 2.5 μM): had RV inhibition activity
- overall outcome of the screen for the 3 factors (RV infectivity, INF-lambda, TNF-alpha) ([1]; 2.5 μM, RV-infected nasal cells): best candidate to move forward
- INF-lambda levels [2]: maintain INF-lambda levels

Molecule: CCCC[C@H](NC(=O)[C@H](CC(=O)O)NC(=O)[C@H](CCC(N)=O)NC(=O)[C@H](CC(=O)O)NC(C)=O)C(=O)N[C@@H](CCCNC(=N)N)C(=O)N[C@@H](CCC(=O)O)C(=O)N[C@@H](C)C(=O)NCC(=O)N[C@@H](C)C(=O)N[C@@H](CCC(N)=O)C(=O)N[C@@H](CC(C)C)C(=O)N[C@@H](CCCCN)C(=O)N[C@@H](CCCCN)C(=O)N[C@@H](CC(C)C)C(=O)N[C@H](C(=O)N[C@@H](CC(=O)O)C(=O)N[C@H](C(N)=O)[C@@H](C)O)C(C)C [Compound C836, DQD-Nle-REAGAQLKKLVDT] (Ac-DQD[Nle]REAGAQLKKLVDT-NH2)
- reduction of RV infection in human nasal cells [3]: approximately 80%
- airway hyperresponsiveness (AHR) compared to HDM-treated given vehicle [4]: significantly lower airway hyperresponsiveness (AHR)
- RV infectivity / RV inhibition activity ([1]; 2.5 μM): have activity in reducing RV infectivity
- loss of lung function as measured by FEV0.2 [5]: protective from loss of lung function
- neutrophils recruited into the lung during HDM challenge [6]: fewer neutrophils are recruited into the lung

Molecule: Ac-Nle-Arg-Glu-Ala-Gly-Ala-Gln-Leu-Lys-Lys-Leu-Val-Asp-Thr-NH2 (Ac-[Nle]REAGAQLKKLVDT-NH2; SMILES CCCC[C@H](NC(C)=O)C(=O)N[C@@H](CCCNC(=N)N)C(=O)N[C@@H](CCC(=O)O)C(=O)N[C@@H](C)C(=O)NCC(=O)N[C@@H](C)C(=O)N[C@@H](CCC(N)=O)C(=O)N[C@@H](CC(C)C)C(=O)N[C@@H](CCCCN)C(=O)N[C@@H](CCCCN)C(=O)N[C@@H](CC(C)C)C(=O)N[C@H](C(=O)N[C@@H](CC(=O)O)C(=O)N[C@H](C(N)=O)[C@@H](C)O)C(C)C) [Compound 974]
- RV infectivity / RV inhibition activity ([1]; 2.5 μM): had RV inhibition activity
- TNF-alpha levels [7]: has a spike in TNF-alpha
- INF-lambda levels [2]: maintain INF-lambda levels

B1: rCC16: human recombinant CC16 (club cell secretory protein) (protein, UniProt P11684 22-91, looked up)
Uteroglobin: EICPSFQRVIETLLMDTPSSYEAAMELFSPDQDMREAGAQLKKLVDTLPQKPRESIIKLMEKIAQSSLCN
- protection against airway hyperresponsiveness and respiratory infections [8]: effective in providing protection
- leukocyte recruitment into the lungs [9]: reduce leukocyte recruitment into the lungs
- reduction of RV infection in human nasal cells [3]: approximately 80%
- IC50 ([1]; rCC16, RV infection of nasal cells, read-out: dose found to be optimal to inhibit 50% of infection): 2500 nM
- RV burden compared to vehicle-treated mice [10]: significant reduction in RV
- protection during respiratory challenges [11]: protective

B2: rCC16 from R&D: standard control, rCC16 from R&D (protein, UniProt P11684 22-91, looked up)
Uteroglobin: EICPSFQRVIETLLMDTPSSYEAAMELFSPDQDMREAGAQLKKLVDTLPQKPRESIIKLMEKIAQSSLCN
- RV infectivity / RV inhibition activity ([1]; 2.5 μM): have activity in reducing RV infectivity

B3: rCC16 made at UA (MJ): standard control, rCC16 made at UA (MJ) (protein, UniProt P11684 22-91, looked up)
Uteroglobin: EICPSFQRVIETLLMDTPSSYEAAMELFSPDQDMREAGAQLKKLVDTLPQKPRESIIKLMEKIAQSSLCN
- RV infectivity / RV inhibition activity ([1]; 2.5 μM): have activity in reducing RV infectivity
